Source: patent US20250263400A1, “GCN2 MODULATOR COMPOUNDS” (Alesta Therapeutics BV, priority 2022, published 2025)

Target: GCN2 (Homo sapiens (Human), UniProt Q9P2K8)
Experiment: GCN2 enzyme assay
Format: biochemical
Experimental: For GCN2 enzyme assays, testing compounds were prepared at proper concentrations in DMSO solution. IC50 values were calculated from a remaining activity using read conversion ratio.

Sequence of GCN2 (Q9P2K8 whole entry, species assumed): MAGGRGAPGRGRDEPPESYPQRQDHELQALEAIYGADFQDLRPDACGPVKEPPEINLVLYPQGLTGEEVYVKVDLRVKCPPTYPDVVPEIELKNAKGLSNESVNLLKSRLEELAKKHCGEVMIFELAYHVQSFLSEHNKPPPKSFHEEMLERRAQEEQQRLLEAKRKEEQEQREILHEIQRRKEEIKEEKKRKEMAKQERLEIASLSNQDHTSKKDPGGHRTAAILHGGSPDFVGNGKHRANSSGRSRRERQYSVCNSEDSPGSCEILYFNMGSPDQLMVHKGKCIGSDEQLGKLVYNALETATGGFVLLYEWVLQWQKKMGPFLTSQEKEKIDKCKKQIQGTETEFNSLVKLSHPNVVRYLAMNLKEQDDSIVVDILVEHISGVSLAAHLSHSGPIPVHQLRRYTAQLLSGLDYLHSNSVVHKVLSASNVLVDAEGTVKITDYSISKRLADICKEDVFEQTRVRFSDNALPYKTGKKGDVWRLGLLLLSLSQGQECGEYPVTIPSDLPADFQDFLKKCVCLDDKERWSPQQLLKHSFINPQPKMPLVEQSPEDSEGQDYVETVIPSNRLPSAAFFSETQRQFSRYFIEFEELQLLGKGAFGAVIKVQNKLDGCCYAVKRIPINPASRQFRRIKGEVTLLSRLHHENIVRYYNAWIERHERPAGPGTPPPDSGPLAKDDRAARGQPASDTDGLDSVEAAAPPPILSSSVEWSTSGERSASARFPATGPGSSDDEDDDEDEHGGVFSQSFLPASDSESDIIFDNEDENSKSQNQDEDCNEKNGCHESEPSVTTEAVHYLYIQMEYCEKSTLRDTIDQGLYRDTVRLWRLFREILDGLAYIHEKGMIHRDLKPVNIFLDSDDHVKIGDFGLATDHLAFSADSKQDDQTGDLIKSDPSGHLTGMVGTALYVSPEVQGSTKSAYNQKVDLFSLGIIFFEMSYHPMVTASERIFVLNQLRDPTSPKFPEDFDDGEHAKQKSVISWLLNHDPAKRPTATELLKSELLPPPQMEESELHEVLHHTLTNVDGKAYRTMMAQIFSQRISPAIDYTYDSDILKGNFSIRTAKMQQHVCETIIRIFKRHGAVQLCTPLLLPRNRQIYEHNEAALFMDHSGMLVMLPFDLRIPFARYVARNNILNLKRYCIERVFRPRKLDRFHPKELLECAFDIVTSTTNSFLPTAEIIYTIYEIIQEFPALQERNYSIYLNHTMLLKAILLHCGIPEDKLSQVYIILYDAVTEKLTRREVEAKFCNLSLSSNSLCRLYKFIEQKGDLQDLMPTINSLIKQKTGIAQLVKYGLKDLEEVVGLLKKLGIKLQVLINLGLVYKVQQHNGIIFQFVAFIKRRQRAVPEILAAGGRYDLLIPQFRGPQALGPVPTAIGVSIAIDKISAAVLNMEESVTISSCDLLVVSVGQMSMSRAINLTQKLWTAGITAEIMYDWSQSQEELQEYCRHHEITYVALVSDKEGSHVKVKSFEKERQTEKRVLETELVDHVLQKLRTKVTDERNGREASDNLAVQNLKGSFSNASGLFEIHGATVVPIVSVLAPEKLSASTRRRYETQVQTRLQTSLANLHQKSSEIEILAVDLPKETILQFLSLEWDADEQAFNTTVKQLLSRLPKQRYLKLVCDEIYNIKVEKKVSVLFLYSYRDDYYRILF

Row | SMILES | IC50 [nM]
1 | COCCNC[C@@H]1CC[C@@H](Nc2ncc3cc(-c4c(F)ccc(NS(=O)(=O)c5cc(Cl)cnc5OC)c4F)ccc3n2)C1 [Compound 13, 5-chloro-N-(2,4-difluoro-3-(2-(((1R,3R)-3-(((2-methoxyethyl)ami-no)methyl)cyclopent-yl)amino)quina-zolin-6-yl)phenyl)-2-methoxypyridine-3-sulfonamide] | 3.96
2 | O=S1(=O)CCC(Nc2ncc3cc(-c4c(F)ccc(NS(=O)(=O)c5cc(Cl)cc(CO)c5Cl)c4F)ccc3n2)C1 (stereo not drawn) [Compound 12, 2,5-dichloro-N-(3-(2-((1,1-dioxidotetrahydro-thiophen-3-yl)amino)quinazo-lin-6-yl)-2,4-difluorophenyl)-3-(hydroxymethyl)ben-zenesulfonamide] | 7.62
3 | Cc1ncc(Cl)cc1S(=O)(=O)Nc1ccc(F)c(-c2ccc3nc(N[C@H]4CC[C@H](N(C)C)CC4)ncc3c2)c1F [Compound 6, 5-chloro-N-(3-(2-(((1R,4R)-4-(dimethylamino)cy-clohexyl)amino)quinazolin-6-yl)-2,4-difluorophenyl)-2-methylpyridine-3-sulfonamide] | 3.36
4 | COc1ncc(Cl)cc1S(=O)(=O)Nc1ccc(Cl)c(-c2ccc3nc(N[C@@H]4CC[C@@H](C(N)=O)C4)ncc3c2)c1Cl [Compound 16, (1R,3R)-3-((6-(2,6-dichloro-3-((5-chloro-2-methoxypyridine)-3-sulfonamido)phenyl)quinazolin-2-yl)amino)cyclopent-ane-1-carboxamide] | 11.7
5 | COCCNC[C@@H]1CC[C@@H](Nc2ncc3cc(-c4c(F)ccc(NS(=O)(=O)c5cc(Cl)cc(CO)c5Cl)c4F)ccc3n2)C1 [Compound 2, 2,5-dichloro-N-(2,4-difluoro-3-(2-(((1R,3R)-3-(((2-methoxyethyl)ami-no)methyl)cyclopent-yl)amino)quina-zolin-6-yl)phenyl)-3-(hydroxymethyl)ben-zenesulfonamide] | 2.63
6 | COCCNC(=O)[C@H]1C[C@H](Nc2ncc3cc(-c4c(F)ccc(NS(=O)(=O)c5cc(Cl)cc(CO)c5Cl)c4F)ccc3n2)CN1 [Compound 3, (2R,4S)-4-((6-(3-((2,5-dichloro-3-(hydroxymethyl)phe-nyl)sulfonamido)-2,6-difluorophenyl)quin-zolin-2-yl)amino)-N-(2-methoxyethyl)pyr-rolidine-2-carboxamide] | 5.43
7 | COc1ncc(Cl)cc1S(=O)(=O)Nc1ccc(F)c(-c2ccc3nc(N[C@@H]4CC[C@@H](C(N)=O)C4)ncc3c2)c1F [Compound 14, (1R,3R)-3-((6-(3-((5-chloro-2-methoxypyridine)-3-sulfonamido)-2,6-difluorophenyl)quinaz-zolin-2-yl)amino)cyclopent-ane-1-carboxamide 2,2,2-trifluoroacetate] | 3.39
8 | CN(C)CCNC(=O)[C@H]1CC[C@H](Nc2ncc3cc(-c4c(F)ccc(NS(=O)(=O)c5cc(Cl)cc(CO)c5Cl)c4F)ccc3n2)CC1 [Compound 4, (1R,4R)-4-((6-(3-((2,5-dichloro-3-(hydroxymethyl)phe-nyl)sulfonamido)-2,6-difluorophenyl)quina-zolin-2-yl)amino)-N-(2-(dimethylamino)eth-yl)cyclohexane-1-carboxamide] | 3.94

Results, then the compound that gave them:

Row | IC50 [nM] | SMILES
9 | 1.64 | COc1ncc(Cl)cc1S(=O)(=O)Nc1ccc(F)c(-c2ccc3nc(N[C@H]4CC[C@H](N)CC4)ncc3c2)c1F [Compound 62, N-(3-(2-(((1R,4R)-4-aminocyclohexyl)amino)quinazolin-6-yl)-2,4-difluorophenyl)-5-chloro-2-methoxypyridine-3-sulfonamide]
10 | 6.66 | COc1ncc(Cl)cc1S(=O)(=O)Nc1ccc(F)c(-c2ccc3nc(NC4CCS(=O)(=O)C4)ncc3c2)c1F (stereo not drawn) [Compound 23, 5-chloro-N-(3-(2-((1,1-dioxidotetrahydro-thiophen-3-yl)amino)quinazo-lin-6-yl)-2,4-difluorophenyl)-2-methoxypyridine-3-sulfonamide]
11 | 19.4 | Nc1ncc2cc(-c3c(Cl)cnc(NS(=O)(=O)c4ccccc4Cl)c3Cl)ccc2n1 [Compound 73, N-(4-(2-aminoquinazolin-6-yl)-3,5-dichloropyridin-2-yl)-2-chlorobenzenesulfon-amide]
12 | 88.3 | CCc1cc(-c2c(F)ccc(NS(=O)(=O)c3cc(Cl)cnc3OC)c2F)cc2cnc(N[C@H]3CC[C@H](NC)CC3)nc12 [Compound 45, 5-chloro-N-(3-(8-ethyl-2-(((1R,4R)-4-(methylamino)cyclo-hexyl)amino)quina-zolin-6-yl)-2,4-difluorophenyl)-2-methoxypyridine-3-sulfonamide]
13 | 7.32 | CCc1cc(-c2c(F)cnc(NS(=O)(=O)c3cc(Cl)cnc3OC)c2F)cc2cnc(N)nc12 [Compound 38, N-(4-(2-amino-8-ethylquinazolin-6-yl)-3,5-difluoropyridin-2-yl)-5-chloro-2-methoxypyridine-3-sulfonamide]
14 | 34.3 | CCc1cc(-c2c(F)ccc(NS(=O)(=O)c3cc(Cl)cnc3OC)c2F)cc2cnc(N[C@@H]3CC[C@@H](C(=O)NCCOC)C3)nc12 [Compound 54, (1R,3R)-3-((6-(3-((5-chloro-2-methoxypyridine)-3-sulfonamido)-2,6-difluorophenyl)-8-ethylquinazolin-2-yl)amino)-N-(2-methoxyethyl)cyclo-pentane-1-carboxamide]
15 | 39.8 | CCc1cc(-c2c(F)ccc(NS(=O)(=O)c3ccccc3Cl)c2F)cc2cnc(N[C@H]3CC[C@H](N)CC3)nc12 [Compound 68, N-(3-(2-(((1R,4R)-4-aminocyclohexyl)amino)-8-ethylquinazolin-6-yl)-2,4-difluorophenyl)-2-chlorobenzenesulfon-amide]
16 | 3.95 | CCc1cc(-c2c(F)ccc(NS(=O)(=O)c3cc(Cl)cnc3OC)c2F)cc2cnc(N[C@H]3CC[C@H](N(C)C)CC3)nc12 [Compound 57, 5-chloro-N-(3-(2-(((1R,4R)-4-(dimethylamino)cy-clohexyl)amino)-8-ethylquinazolin-6-yl)-2,4-difluorophenyl)-2-methoxypyridine-3-sulfonamide]
17 | 8.33 | CCc1cc(-c2c(Cl)cnc(NS(=O)(=O)c3cc(Cl)cnc3OC)c2Cl)cc2cnc(N)nc12 [Compound 40, N-(4-(2-amino-8-ethylquinazolin-6-yl)-3,5-dichloropyridin-2-yl)-5-chloro-2-methoxypyridine-3-sulfonamide]
18 | 25.3 | COc1ncc(Cl)cc1S(=O)(=O)Nc1ccc(Cl)c(-c2ccc3nc(NC4CCS(=O)(=O)C4)ncc3c2)c1Cl (stereo not drawn) [Compound 27, 5-chloro-N-(2,4-dichloro-3-(2-((1,1-dioxidotetrahydro-thiophen-3-yl)amino)quinazo-lin-6-yl)phenyl)-2-methoxypyridine-3-sulfonamide]
